Assay results reported in patent US20070166547A1, “Use of a layer consisting of hydrophobic linear, or two-dimensional polycyclic aromatics as a barrier layer or an encapsulation and electric components constructed with a layer of this type and comprising organic polymers” (priority 2003, published 2007).

Columns and labels:
[1] = test system: indicator enzymes in blood plasma; test: Morphine abstinence model: indicator enzymes AST, ALT, γ-GTP in blood plasma; format: in vivo, rats Wistar
Procedure: (§1) The experiments were carried out on rats in series of 7 animals on each compound according to the invention. Non-morphinized animal with not administered with compounds according to the invention were used as a control group. […] Then the rats were decapitated, the blood from somnolent arteries was collected in test tubes with solution EDTA as an anticoagulant, centrifuged at 1500 g for 15 minutes at 4° C.
To estimate possible hepatoprotective action of the compounds according to the invention under conditions of development of an oxidizing stress in the liver cells, effect of these compounds on the most important biochemical blood indexes, in particular, on the content in blood plasma of indicator enzyme of aspartateaminotransferase (AST), alanineaminotransferase (ALT), γ-glutamiletranspeptidase (γ-GTP) was investigated. The content of enzymes was estimated by their catalyzing activity in blood plasma.
The activity of AST, ALT and γ-GTP was determined by means of diagnostic sets DiaSys, Germany.

thymus [2] = test: Morphine abstinence model: thymus condition; format: in vivo, rats; details: morphinized rats then compound
Procedure: The effect of the compounds according to the invention on the condition of the thymus of the rats was also investigated: a control group, an experimental group of morphinized animals and an experimental group of animals were first morphinized and then injected with the compounds according to the invention. The experiment was carried out similarly to that described above.

[3] = test system: adenosine-sensitive receptors of thrombocytes; test: ADP-induced aggregation of thrombocytes in vitro (Born method); format: cell-based, rabbit; details: 3 min incubation, ADP 10^−5 M
Procedure: The compounds according to the invention were studied for the effect of aggregation of thrombocytes induced by a preliminary introduction of a solution of an aggregation inductor with a competing introduction of the compounds according to the invention.
The aggregation of thrombocytes was studied by the Born method based on determination of the changes in the optical density of plasma enriched with thrombocytes after its incubation with an aggregation inductor.
Adenozinediphosphoric acid (ADP) was selected as an aggregation inductor, which in fact is an aggregation generator. Use was made of a sample (registration number 885) of the Sigma Diagnostics Company (USA) in final concentration of 10^−5 M.
The experiments were carried out on male rabbits of the “Chinchilla” breed having a mass of 2.7±0.3 kg. 18-24 hours prior to the experiment they were deprived of feed while preserving free access to water.
To obtain plasma enriched with thrombocytes, blood was taken from a cut of a marginal vein of the rabbit ear, the sample was stabilized with 3.8% of sodium citrate solution in a ratio of 9:1 and centrifuged at 200 g (1000 rev/min) for 10 minutes. The top supernatant layer enriched with thrombocytes was transferred by an automatic dropper into a silicone test tube and kept at 37° C. The plasma enriched with thrombocytes contained, on the average, […]. If this content exceeded the specified 3×10^8 blood platelets in 1 liter, this sample was diluted to the necessary concentration with plasma deprived of thrombocytes, which was obtained by centrifuging blood at 650 g during 10 minutes.
The measurements of the optical density of the samples were made on two-channel aggregometer of the “Chronolog” Company (USA). A flask containing 490 mkl of plasma rich with thrombocytes was placed in a device, into which a magnetic agitator covered with Teflon was lowered. The index of maximum amplitude of aggregation (MA) in percent of a fall of the plasma optical density under effect of the aggregation inductor was recorded. The control index MA of plasma was compared with the MA of plasma incubated for 3 minutes with different concentrations of the compounds: from 10^−3 to 10^−7 in vitro experiments or with plasma obtained 15, 30, 60 and 120 minutes after intravenous administration of different doses of the compounds in vivo experiments.
The process of aggregation of thrombocytes was recorded with the help of a computer; on the monitor screen the there were depicted curves reflecting changes of the optical density of the plasma enriched which was taken as a standard 100% compared to the optical density of the non-thrombocyte plasma taken for 0% content of thrombocytes.
Under in vitro conditions a flask was filled with blood plasma enriched with thrombocytes, to which an aggregation inductor ADP was added at a concentration of 10^−5 M, incubated for 3 minutes, and then the compounds according to the invention were introduced directly into the flask. Their action by aggregation of thrombocytes was studied after 3-minute incubation in a wide range of concentrations from 10^−3 to 10^−7 M to minimum concentration of 10^−7 M not inducing no effect of suppressing the aggregation.

thymus [4] = test: Morphine abstinence model: thymus condition; format: in vivo, rats; details: compound alone
[5] = test system: metabolism of nitrogen oxide; test: Morphine abstinence model: nitrites and nitrates NOX− in blood plasma, liver and brain; format: in vivo, rats Wistar
Procedure: as §1
To estimate the intensity of metabolism of nitrogen oxide in rats, quantitative determination of stable metabolites of nitrogen oxide—nitrites and nitrates NOX^− in the blood plasma, supernatanates of the liver and thymus gland, a study was conducted by a spectrometric method, and in the brain supernatanates by a […] method.
The spectrometric method is based the reaction of nitrites with the Griss reagent (a mixture of 2% solution of sulfanilamide and 0.2% N-(1-naphthyl)ethylene diamine. At the first step the nitrite reacts with sulfanilamide with formation of diazonium salt, and then with the second component to form azo dye with an adsorption maximum at 540 nm. For reduction of nitrates into nitrites, a fermentative method was used with bacterial reductase nitrate (Grisham M. B. et al., 1995). The samples of plasma and supernatant of the liver deproteinizated at 100° C. for 5 minutes incubated for 30 minutes at 37° C. in 50.0 mM of HEPES pH 7.4 in the presence of 0.2 unit/ml of Aspergillus reductase nitrate, 5.0 mkM of FAD and 0.1 mM of NAD-Ph. At the end of the reaction lactate dehydrogenase and pyruvate were added for isolation of NAD-Ph interfering with the Griss reaction. Then the Griss reagent was added and after 10-minute incubation the light absorption of the samples was measured at 540 nm. To amount of NOX^− was calculated using sodium nitrate as a standard.
The fluorometric method is based on calculation of the nitrite level by the intensity fluorescence of 2,3-diaminonaphthotriazole, a product of reaction of 2,3-diaminonaphthalene (DAN) and nitrite in an acidic medium (Misko T. R., Schilling R. J., Salvemini D. et al. “A fluorometric assay for the measurement of nitrite of biological samples”. Anal. Biochem., 1993, v. 214, p. 11-16). The brain supernatants deproteinizated at 100° C. were placed in a nitrite regenerating system containing 0.125 unit/ml of nitrate reductases, 25 mkM NADPh and 25 mkM FAD prepared in a 20-mM Tris-HCl buffer with pH 7.6 and incubated for 30 minutes at 37° C. The lactatedehydrogenase/pyruvate system was used for oxidation of the NADPh. Then 316 mkM of the DAN solution in 0.62 M of hydrochloric acids were added and the mixture was incubated for 10 minutes in darkness.
280 mM of NaOH were added for stabilization of the fluorescence of the formed 2,3-diaminonaphthotriazole. The fluorescence intensity was measured in the spectrofluorimeter Hitachi F-3000 at a wavelength of excitation of 365 nm and an emission of 405 nm. The concentration of NOX^− in the brain was calculated by means of a standard solution of sodium nitrate.

[6] = test system: synthase of nitrogen oxide (NOC); test: Morphine abstinence model: activity of synthase of nitrogen oxide (radiometric, [3H]L-citrulline); format: in vivo, rats Wistar
[7] = for comparison; cited from earlier work
[8] = compound alone 20.0 mg/kg intramuscularly
[9] = morphinized rats then compound 20.0 mg/kg intramuscularly

In the case of `O=c1[nH][nH]c(=O)c2ncccc12.[Li]` [Compound 6, lithium salt of pyrido[2,3-d]-6H-pyridazine-5,8-dione], the “ALT, Ci, mE/l, Control + compound” value [1, 8] is reported as 114.5 ± 1.13 mE/l, the “AST, Ci, mE/l, Control + compound” value [1, 8] is reported as 176.18 ± 3.26 mE/l and the “γ-GTP, Ci, mE/l, Control + compound” value [1, 8] is reported as 8.27 ± 2.12 mE/l. The “ALT, Ci, mE/l, control + Morphine + Compound” value [1, 9] was 122.44 ± 2.01 mE/l, the “AST, Ci, mE/l, control + Morphine + Compound” value [1, 9] was 198.34 ± 9.32 mE/l and the “γ-GTP, Ci, mE/l, control + Morphine + Compound” value [1, 9] was 12.52 ± 2.02 mE/l. The “Nitrites, thymus Supernatant, Administration of morphine and compound” value (thymus [2]) was 0.419 ± 0.02 nmol/mg of protein, the “Thymus mass, Administration of morphine and compound” value (thymus [2]) was 207 ± 14 mg and the “MA - fall of optical density of plasma, % to the standard” value (“MA - fall … % to the standard” below) ([3]; 10^−3 M) was 50.0 ± 1.9 %. For the same compound, the “MA - fall … % to the standard” value ([3]; 10^−4 M) was 53.3 ± 2.2 %, the “MA - fall … % to the standard” value ([3]; 10^−5 M) was 47.4 ± 2.0 % and the “MA - drop of optical density, % compared to control” value ([3]; 10^−6 M) was 51.2 ± 3.2%. For the same compound, the “MA - drop of optical density, % compared to control” value ([3]; 10^−7 M) was 50.7 ± 3.2%, the “Nitrites, thymus Supernatant, Administration of compounds” value (thymus [4]) was 0.424 ± 0.04 nmol/mg of protein and the “Thymus mass, Administration of compounds” value (thymus [4]) was 242 ± 17 mg. For the same compound, the “Nitrites in blood plasma, Control + Compound” value [5, 8] was 15.83 ± 1.21 mkmol/ml, the “Nitrites in brain, Cortex of cerebrum, Control + Compound” value [5, 8] was 4.59 ± 0.44 nmol/mg of protein and the “Nitrites in brain, Hypothalamus, Control + Compound” value [5, 8] was 6.94 ± 0.67 nmol/mg of protein. The “Nitrites in brain, Mesencephalon, Control + Compound” value [5, 8] was 7.01 ± 0.82 nmol/mg of protein, the “Nitrites in liver, Control + Compound” value [5, 8] was 0.245 ± 0.010 nmol/mg of protein and the “Nitrites in blood plasma, Control + Morphine + compound” value [5, 9] was 15.86 ± 1.20 mkmol/ml. For the same compound, the “Nitrites in brain, Cortex of cerebrum, Control + Morphine + compound” value [5, 9] was 5.12 ± 0.18 nmol/mg of protein, the “Nitrites in brain, Hypothalamus, Control + Morphine + compound” value [5, 9] was 6.72 ± 0.94 nmol/mg of protein and the “Nitrites in brain, Mesencephalon, Control + Morphine + compound” value [5, 9] was 5.76 ± 0.94 nmol/mg of protein. For the same compound, the “Nitrites in liver, Control + Morphine + compound” value [5, 9] was 0.294 ± 0.02 nmol/mg of protein, the “Activity of NOC, Hypothalamus, Control + Compound” value [6, 8] was 5.93 ± 0.27 pmol/min/mg of protein and the “Activity of NOC, Mesencephalon, Control + Compound” value [6, 8] was 2.84 ± 0.31 pmol/min/mg of protein. For the same compound, the “Activity of NOC, Hypothalamus, Control + Morphine + compound” value [6, 9] was 5.24 ± 0.24 pmol/min/mg of protein and the “Activity of NOC, Mesencephalon, Control + Morphine + compound” value [6, 9] was 1.99 ± 0.31 pmol/min/mg of protein.
For `Cc1cc2nc3c(=O)[nH]c(=O)nc-3n(C[C@H](O)[C@H](O)[C@H](O)COP(=O)(O)OP(=O)(O)OC[C@H]3O[C@@H](n4cnc5c(N)ncnc54)[C@H](O)[C@@H]3O)c2cc1C` [FAD^+], the “E1/2 of electrochemical reduction of coenzyme” value [7] is given as −0.05 V.
For `NC(=O)c1ccc[n+]([C@@H]2O[C@H](COP(=O)([O-])OP(=O)(O)OC[C@H]3O[C@@H](n4cnc5c(N)ncnc54)[C@H](O)[C@@H]3O)[C@@H](O)[C@H]2O)c1` [NAD^+], the “E1/2 of electrochemical reduction of coenzyme” value [7] is given as −0.32 V.
